# Measured values as given in article PMC8667902 (Journal of Enzyme Inhibition and Medicinal Chemistry, 2021).
# “And” between values parts separate entries of the source, which are not always exact repeats. Equal values may be shown once.
# Tests used:
# ratAChE = target: T1, ratAChE (Rattus norvegicus, UniProt P37136); assay: Ellman's method, AChE from rat cortex homogenate; assay type: biochemical; conditions: ratBuChE over rat AChE
# T1 sequence (P37136 32-614): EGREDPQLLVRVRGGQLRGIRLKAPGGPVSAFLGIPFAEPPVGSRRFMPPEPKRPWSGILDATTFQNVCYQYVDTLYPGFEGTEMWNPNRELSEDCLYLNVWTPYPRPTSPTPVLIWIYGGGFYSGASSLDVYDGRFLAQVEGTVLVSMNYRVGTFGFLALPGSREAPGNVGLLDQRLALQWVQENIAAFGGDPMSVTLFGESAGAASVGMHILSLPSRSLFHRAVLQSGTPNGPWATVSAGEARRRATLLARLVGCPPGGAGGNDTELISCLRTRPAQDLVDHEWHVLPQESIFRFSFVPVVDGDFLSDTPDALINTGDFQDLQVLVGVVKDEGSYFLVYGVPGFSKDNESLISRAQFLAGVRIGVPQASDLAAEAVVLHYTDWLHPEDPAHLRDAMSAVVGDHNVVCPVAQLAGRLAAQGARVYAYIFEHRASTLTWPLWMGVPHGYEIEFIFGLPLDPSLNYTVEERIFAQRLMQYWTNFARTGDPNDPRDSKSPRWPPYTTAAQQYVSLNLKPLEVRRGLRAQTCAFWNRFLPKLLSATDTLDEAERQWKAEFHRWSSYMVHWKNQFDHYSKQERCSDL
# eeAChE = eeAChE (Electrophorus electricus, UniProt O42275); assay: Ellman's method, electric eel AChE; assay type: biochemical
# Chain of eeAChE (O42275 24-633): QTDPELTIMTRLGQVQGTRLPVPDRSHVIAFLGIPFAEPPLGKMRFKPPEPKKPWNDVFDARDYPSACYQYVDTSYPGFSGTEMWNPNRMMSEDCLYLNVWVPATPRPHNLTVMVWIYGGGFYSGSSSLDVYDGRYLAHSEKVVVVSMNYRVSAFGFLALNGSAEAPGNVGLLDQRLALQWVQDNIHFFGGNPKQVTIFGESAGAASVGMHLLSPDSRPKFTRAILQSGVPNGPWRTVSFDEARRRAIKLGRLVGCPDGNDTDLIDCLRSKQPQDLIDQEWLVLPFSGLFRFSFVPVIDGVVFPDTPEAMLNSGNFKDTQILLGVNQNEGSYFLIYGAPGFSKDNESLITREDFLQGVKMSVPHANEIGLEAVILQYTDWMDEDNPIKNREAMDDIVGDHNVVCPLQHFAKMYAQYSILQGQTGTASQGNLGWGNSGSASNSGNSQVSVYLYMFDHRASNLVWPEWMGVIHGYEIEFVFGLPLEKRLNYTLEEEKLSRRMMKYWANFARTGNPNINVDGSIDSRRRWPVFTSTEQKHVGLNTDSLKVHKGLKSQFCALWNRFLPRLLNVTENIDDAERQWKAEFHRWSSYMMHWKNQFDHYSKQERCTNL
# ratBuChE = ratBuChE (Rattus norvegicus, UniProt Q9JKC1); assay: Ellman's method, BuChE from rat serum; assay type: biochemical
# Chain of ratBuChE (Q9JKC1 24-597): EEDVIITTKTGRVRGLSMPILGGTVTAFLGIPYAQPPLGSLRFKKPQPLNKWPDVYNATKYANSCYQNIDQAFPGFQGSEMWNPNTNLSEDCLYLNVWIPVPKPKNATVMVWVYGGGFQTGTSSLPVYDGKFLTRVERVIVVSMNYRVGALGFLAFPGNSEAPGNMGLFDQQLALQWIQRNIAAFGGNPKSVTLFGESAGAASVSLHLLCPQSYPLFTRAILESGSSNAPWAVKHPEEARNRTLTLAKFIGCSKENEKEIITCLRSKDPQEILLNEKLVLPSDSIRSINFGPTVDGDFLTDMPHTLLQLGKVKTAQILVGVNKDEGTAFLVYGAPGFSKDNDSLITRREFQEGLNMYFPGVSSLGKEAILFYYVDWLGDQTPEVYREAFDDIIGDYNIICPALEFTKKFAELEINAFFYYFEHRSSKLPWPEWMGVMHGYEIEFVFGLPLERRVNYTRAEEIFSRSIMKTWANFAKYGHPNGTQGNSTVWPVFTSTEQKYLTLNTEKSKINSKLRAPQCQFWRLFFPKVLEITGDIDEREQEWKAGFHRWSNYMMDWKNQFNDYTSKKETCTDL
# [1] = Oxygen Radicals Absorbance Capacity by Fluorescence; conditions: for ORAC: Trolox as reference
# AChE = assay: Kinetic characterisation of AChE inhibition; assay type: biochemical; conditions: Lineweaver-Burk plots, substrate acetylthiocholine
# AChE PAS (eeAChE) = AChE PAS (eeAChE) (Electrophorus electricus, UniProt O42275); assay: Propidium iodide displacement assay; assay type: binding, electric eel; conditions: read-out: Propidium iodide displacement from AChE PAS (% inhibition)
# Chain of AChE PAS (eeAChE) (O42275 24-633): as the sequence (O42275 24-633) above
# [2] = target: huAChE-induced Aβ1–40 aggregation (Homo sapiens, UniProt P22303); assay: Inhibition of huAChE-induced Aβ1–40 aggregation; assay type: biochemical; conditions: compound 100 μM, Aβ1–40 230 μM, Aβ1–40/HuAChE 100/1; ThT; mean ± SEM
# Chain of huAChE-induced Aβ1–40 aggregation (P22303 32-614): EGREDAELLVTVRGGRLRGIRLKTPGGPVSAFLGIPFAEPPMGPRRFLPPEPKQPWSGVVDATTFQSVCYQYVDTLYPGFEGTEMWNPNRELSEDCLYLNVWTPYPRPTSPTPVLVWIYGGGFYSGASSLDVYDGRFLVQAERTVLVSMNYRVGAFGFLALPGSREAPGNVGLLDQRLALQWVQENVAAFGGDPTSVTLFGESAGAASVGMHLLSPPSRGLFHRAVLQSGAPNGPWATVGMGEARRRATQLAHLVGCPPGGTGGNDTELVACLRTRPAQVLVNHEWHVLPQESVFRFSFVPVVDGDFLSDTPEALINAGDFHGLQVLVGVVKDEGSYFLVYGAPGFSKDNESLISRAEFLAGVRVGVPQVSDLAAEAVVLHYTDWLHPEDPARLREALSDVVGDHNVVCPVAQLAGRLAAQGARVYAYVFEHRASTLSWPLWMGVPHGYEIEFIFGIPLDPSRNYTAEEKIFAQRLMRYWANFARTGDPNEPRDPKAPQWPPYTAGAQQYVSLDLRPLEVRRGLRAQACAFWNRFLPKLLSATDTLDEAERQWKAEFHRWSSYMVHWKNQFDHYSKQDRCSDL
# Aβ1–42 [3] = target: T2, Aβ1–42 (Homo sapiens, UniProt P05067); assay: Inhibition of self-induced Aβ1–42 aggregation; assay type: biochemical; conditions: read-out: Inhibition of Aβ1–42 aggregation (%) Self-induced, 25 μM; ThT assay
# T2 sequence (P05067 672-713): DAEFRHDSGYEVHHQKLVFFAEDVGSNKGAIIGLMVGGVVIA
# Aβ1–42 [4] = target: T2, Aβ1–42; assay: Inhibition of Cu2+-induced Aβ1–42 aggregation; assay type: biochemical; conditions: read-out: Inhibition of Aβ1–42 aggregation (%) Cu^2+-induced
# Aβ1–42 fibrils [5] = target: T3, Aβ1–42 fibrils (Homo sapiens, UniProt P05067); assay: Disaggregation of self-induced Aβ1–42 aggregation; assay type: biochemical; conditions: 25 μM; ThT assay
# T3 sequence (P05067 672-713): as above
# Aβ1–42 fibrils [6] = target: T3, Aβ1–42 fibrils; assay: Disaggregation of Cu2+-induced Aβ1–42 aggregation; assay type: biochemical; conditions: 25 μM; ThT assay
# huMAO-B = target: T4, huMAO-B (Homo sapiens, UniProt P27338); assay: biochemical
# T4 sequence (P27338 1-520): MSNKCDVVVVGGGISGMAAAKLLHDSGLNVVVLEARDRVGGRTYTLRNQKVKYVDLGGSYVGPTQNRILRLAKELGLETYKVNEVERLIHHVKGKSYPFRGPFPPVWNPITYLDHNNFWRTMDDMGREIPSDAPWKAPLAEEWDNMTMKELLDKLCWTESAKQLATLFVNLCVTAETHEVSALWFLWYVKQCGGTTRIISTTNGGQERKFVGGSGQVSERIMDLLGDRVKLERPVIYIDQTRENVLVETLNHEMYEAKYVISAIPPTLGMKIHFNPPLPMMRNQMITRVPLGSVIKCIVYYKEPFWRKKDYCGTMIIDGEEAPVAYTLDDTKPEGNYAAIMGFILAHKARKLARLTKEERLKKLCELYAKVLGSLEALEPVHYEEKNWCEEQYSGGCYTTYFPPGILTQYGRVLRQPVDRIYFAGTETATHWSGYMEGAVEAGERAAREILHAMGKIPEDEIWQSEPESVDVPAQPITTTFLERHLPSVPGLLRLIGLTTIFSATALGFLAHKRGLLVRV
# huMAO-A = target: T5, huMAO-A (Homo sapiens, UniProt P21397); assay: huMAO-A inhibition, fluorescence method; assay type: biochemical
# T5 sequence (P21397 1-527): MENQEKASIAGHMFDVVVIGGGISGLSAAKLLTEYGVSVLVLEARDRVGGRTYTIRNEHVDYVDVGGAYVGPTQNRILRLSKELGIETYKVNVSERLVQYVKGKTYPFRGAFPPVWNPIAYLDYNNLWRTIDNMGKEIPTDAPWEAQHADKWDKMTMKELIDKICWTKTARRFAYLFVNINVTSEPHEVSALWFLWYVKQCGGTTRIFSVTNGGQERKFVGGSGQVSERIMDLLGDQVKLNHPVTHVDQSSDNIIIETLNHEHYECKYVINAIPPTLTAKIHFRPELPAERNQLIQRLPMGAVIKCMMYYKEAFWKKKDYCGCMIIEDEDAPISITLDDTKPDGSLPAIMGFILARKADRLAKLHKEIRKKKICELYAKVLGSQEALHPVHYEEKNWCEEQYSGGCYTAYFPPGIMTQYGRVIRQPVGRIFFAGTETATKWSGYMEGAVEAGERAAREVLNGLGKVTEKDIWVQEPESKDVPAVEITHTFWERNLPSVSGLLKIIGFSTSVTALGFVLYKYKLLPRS
# [7] = Metal chelation by UV-vis spectrometry and molar ratio method; assay type: physicochemical
# PC12 cells [8] = assay: Cytotoxicity in PC12 cells, MTT assay; assay type: cell-based; conditions: up to 50 µM
# PC12 cells [9] = assay: Neuroprotection against H2O2-induced PC12 cell injury, LDH assay; assay type: cell-based; conditions: H2O2 alone 712.7, vehicle 602.3
# [10] = 37.5 μM, peak of compound alone: 9d 362 nm, 17f 350 nm
smiles,measurement,setting,value
"CCN(CCCCCCOc1ccc(/C=C/C(=O)c2c(O)cc(OC)c(O)c2OC)cc1)Cc1ccccc1OC [Compound 17f, (E)-1-(3,6-dihydroxy-2,4-dimethoxyphenyl)-3-(4-((6-(ethyl(2-methoxybenzyl)amino)hexyl)oxy)phenyl)prop-2-en-1-one]",SI = Selectivity index = IC50 (BuChE)/IC50 (AChE),ratAChE,>1219.5
same,IC50,eeAChE,1.88 ± 0.01 µM
same,IC50,ratBuChE,> 500 µM
same,ORAC,[1],3.3 ± 0.01 μM of Trolox equivalent/μM of compounds
same,ORAC-FL value,[1]; Trolox equivalents,3.3 eq
same,type of AChE inhibition,AChE,mixed-type AChE inhibition
same,inhibition at 10 µM,AChE PAS (eeAChE),23.9 ± 1.6%
same,inhibition at 50 µM,AChE PAS (eeAChE),34.2 ± 2.3%
same,% Inhibition of huAChE-induced Aβ aggregation,[2],53.9 ± 3.7%
same,inhibition at 25 µM,Aβ1–42 [3],78 ± 0.02%
same,inhibition at 25 µM,Aβ1–42 [4],93.5 ± 0.01%
same,Disaggregation of Aβ1–42 aggregation (%) Self-induced,Aβ1–42 fibrils [5],72.3% and 72.3 ± 0.06%
same,Disaggregation of Aβ1–42 aggregation (%) Cu^2+-induced,Aβ1–42 fibrils [6],84.5% and 84.5 ± 0.35%
same,IC50,huMAO-B,8.8 ± 0.06 µM
same,SI = selectivity index = IC50 (hMAO-A)/IC50 (hMAO-B),huMAO-B,4.3
same,IC50,huMAO-A,37.5 ± 0.35 µM
same,shift of characteristic UV peak after adding FeSO4 and ZnCl2,[7]; 37.5 μM,no significant shift
same,"mole fraction at break (molar ratio method, compound-Cu^2+)","[7]; 37.5 μM compound, ascending CuCl2",1.03
same,characteristic UV peak after adding AlCl3 (red shift),[7]; [10],370 nm
same,characteristic UV peak after adding CuCl2 (red shift),[7]; [10],422 nm
same,cytotoxicity in PC12 cells,PC12 cells [8],did not show obvious cytotoxicity
same,LDH vitality,"PC12 cells [9]; PC12, 100 µM H2O2, compound 10 µM",621.3
same,LDH vitality,"PC12 cells [9]; PC12, 100 µM H2O2, compound 50 µM",549.7
same,Papp,PAMPA-BBB; PAMPA,4.23 ± 0.37 ×10⁻⁶ cm/s
same,Prediction (BBB penetration),PAMPA-BBB; PAMPA-BBB,CNS+ (Pe (×10^−6 cm/s) > 3.44 × 10^−6 cm/s possess high BBB permeation)
"Cc1c(C)c2c(c(C)c1O)CC[C@@](C)(CCC[C@H](C)CCC[C@H](C)CCCC(C)C)O2 [Vitamin E, α-tocopherol, reference compound]",ORAC,[1],2.6 ± 0.06 μM of Trolox equivalent/μM of compounds
same,LDH vitality,"PC12 cells [9]; PC12, 100 µM H2O2, compound 100 µM",654.7
